For two molecules, Km and Ki results are on record in PMC3742363 (Chemistry & biology, 2013).

The target in test [1] is T1, p38α wt (Mus musculus, UniProt P47811). As to the kind of experiment: Kinetics: activity assay at varied ATP concentrations. Type of test: biochemical. The following applies: read-out: Km(ATP); activated p38α wt.
For test [2], the target named is T2, p38α T106Q (Mus musculus, UniProt P47811, T106Q). The description is as above. The test is classed as biochemical. As to conditions: read-out: Km(ATP); activated p38α T106Q; rate of reaction maintained linearity as high as 1000 μM ATP.
T2 sequence (P47811 whole entry T106Q): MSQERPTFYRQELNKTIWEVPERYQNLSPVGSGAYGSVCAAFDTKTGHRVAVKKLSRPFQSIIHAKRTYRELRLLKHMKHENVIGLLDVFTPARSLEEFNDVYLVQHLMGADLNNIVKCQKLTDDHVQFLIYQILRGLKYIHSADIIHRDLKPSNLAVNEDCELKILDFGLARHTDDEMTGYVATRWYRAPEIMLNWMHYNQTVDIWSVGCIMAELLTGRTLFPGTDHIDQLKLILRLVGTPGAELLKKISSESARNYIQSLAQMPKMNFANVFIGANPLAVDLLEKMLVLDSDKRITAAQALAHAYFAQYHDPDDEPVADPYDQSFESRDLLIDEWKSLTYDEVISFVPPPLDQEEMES
In another test the target is Jnk3 wt (Homo sapiens, UniProt P53779). Described as above. Type of test: biochemical. As to conditions: read-out: Km(ATP); activated Jnk3 wt.
Sequence of Jnk3 wt (P53779 whole entry): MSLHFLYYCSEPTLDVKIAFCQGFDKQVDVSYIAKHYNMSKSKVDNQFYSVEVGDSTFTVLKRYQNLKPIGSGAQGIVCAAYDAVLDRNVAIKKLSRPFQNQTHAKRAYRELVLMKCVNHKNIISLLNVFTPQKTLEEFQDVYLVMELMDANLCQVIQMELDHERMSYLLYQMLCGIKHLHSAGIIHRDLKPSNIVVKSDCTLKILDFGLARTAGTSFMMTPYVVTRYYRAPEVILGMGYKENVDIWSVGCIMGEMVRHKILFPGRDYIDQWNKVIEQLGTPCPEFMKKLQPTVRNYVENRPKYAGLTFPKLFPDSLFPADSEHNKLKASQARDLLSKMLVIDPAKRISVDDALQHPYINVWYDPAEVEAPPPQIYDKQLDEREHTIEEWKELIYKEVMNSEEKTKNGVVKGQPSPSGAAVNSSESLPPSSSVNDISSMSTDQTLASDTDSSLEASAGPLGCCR
In a further test the target is Jnk3 M146I (Homo sapiens, UniProt P53779, M146I). The test is described as above. The following applies: read-out: Km(ATP); activated Jnk3 M146I. The test is classed as biochemical.
Sequence of Jnk3 M146I (P53779 whole entry M146I): as the sequence (P53779 whole entry) above, with M146I counted along it
The target of a further test is T3, p38δ wt (Mus musculus, UniProt Q9Z1B7).
T3 sequence (Q9Z1B7 1-366): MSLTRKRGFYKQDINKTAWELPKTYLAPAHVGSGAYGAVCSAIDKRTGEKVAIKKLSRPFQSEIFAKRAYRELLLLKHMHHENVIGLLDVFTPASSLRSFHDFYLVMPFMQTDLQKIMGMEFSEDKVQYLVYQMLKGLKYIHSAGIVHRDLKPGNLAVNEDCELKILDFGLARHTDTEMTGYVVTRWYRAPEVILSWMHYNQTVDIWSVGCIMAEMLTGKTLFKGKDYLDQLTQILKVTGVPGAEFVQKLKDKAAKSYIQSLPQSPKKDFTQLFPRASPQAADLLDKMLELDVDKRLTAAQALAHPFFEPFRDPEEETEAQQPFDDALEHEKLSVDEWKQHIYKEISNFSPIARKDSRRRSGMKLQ
The description is as above. Type of test: biochemical. The following applies: read-out: Km(ATP); activated p38δ wt.

A further test has as its target T4, p38δ M107T (Mus musculus, UniProt Q9Z1B7, M107T).
T4 sequence (Q9Z1B7 1-366 M107T): T3 sequence (Q9Z1B7 1-366) with M107T
Described as above. The test is classed as biochemical. The following applies: read-out: Km(ATP); activated p38δ M107T.

In a further test the target is Erk2 wt (Rattus norvegicus, UniProt P63086). The following applies: read-out: Km(ATP); activated Erk2 wt.
In another test the target is Erk2 Q103T (Rattus norvegicus, UniProt P63086, Q103T). As to conditions: read-out: Km(ATP); activated Erk2 Q103T.
The target in another test is Erk2 Q103T/C164L (Rattus norvegicus, UniProt P63086, C164L/Q103T). The following applies: read-out: Km(ATP); activated Erk2 Q103T/C164L.
For another test, the target named is Erk2 Q103A/C164L (Rattus norvegicus, UniProt P63086, C164L/Q103A). As to conditions: read-out: Km(ATP); activated Erk2 Q103A/C164L.
For test [3], the target named is T1, p38α wt. As to the kind of experiment: Kinase activity assay. Type of test: biochemical.
For test [4], the target named is T2, p38α T106Q. As to the kind of experiment: Kinase activity assay. Type of test: biochemical.

Numbering of substitutions follows the chain as printed.

T1 sequence (P47811 whole entry): as the sequence (P47811 whole entry T106Q) above, with Q106T counted along it

On to `Nc1ncnc2c1ncn2[C@@H]1O[C@H](COP(=O)(O)OP(=O)(O)OP(=O)(O)O)[C@@H](O)[C@H]1O` [ATP], for which the Km was 229 ± 16 µM on p38α wt [1]; over 1000 µM at p38α T106Q [2]; 8.3 ± 0.6 µM on Jnk3 wt; 66 ± 3 µM on Jnk3 M146I; 91 ± 6 µM at p38δ wt; 380 ± 40 µM on p38δ M107T. Further, the Km stood at 120 ± 10 µM at Erk2 wt, 83 ± 5 µM at Erk2 Q103T, 180 ± 20 µM at Erk2 Q103T/C164L and 137 ± 6 µM at Erk2 Q103A/C164L.

`Cc1ccc(C(=O)Nc2ccc(CN3CCN(C)CC3)c(C(F)(F)F)c2)cc1C#Cc1cnc2cccnn12` [L1, Iclusig]: the Ki was 0.0081 ± 0.0002 µM on p38α wt [3] and 3.7 ± 0.4 µM on p38α T106Q [4].

The term Km denotes the concentration of substrate that gives half-maximal velocity. By Ki is commonly meant the equilibrium dissociation constant of an inhibitor or competing ligand from its target.
